The compounds below were run against BCL2 (Homo sapiens, UniProt P10415) (assay: Biacore SPR solution inhibition assay of BCL-2 binding to peptide derivatized sensor surfaces). Conditions: SPR competition; 56 nM BCL2 pre-equilibrated with compound one hour; biotinylated BAK, BAD and NOXA peptide surfaces; 25° C.
Method in brief: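 Solution-competition SPR at 25 °C in HEPES pH 7.4 buffer with 1.25 mM DTT and 3% DMSO: compounds (6-point threefold series, 16 μM to 0.004 nM) pre-equilibrated 1 h with 56 nM BCL2, then injected over captured biotinylated BAK, BAD and NOXA peptide surfaces. Binding levels relative to BCL2-only controls gave % inhibition.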

Chain of BCL2 (P10415 whole entry): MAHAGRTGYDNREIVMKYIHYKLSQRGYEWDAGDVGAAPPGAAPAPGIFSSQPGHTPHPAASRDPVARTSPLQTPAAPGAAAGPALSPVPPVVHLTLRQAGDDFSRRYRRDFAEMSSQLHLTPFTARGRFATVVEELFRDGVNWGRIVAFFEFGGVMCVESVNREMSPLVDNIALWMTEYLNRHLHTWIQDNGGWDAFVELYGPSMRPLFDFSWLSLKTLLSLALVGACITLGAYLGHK

Row | Compound | IC50 [nM]
1 | [2H]C1(N2CCc3c(nc(C(F)(F)F)nc3NS(=O)(=O)c3ccc(N[C@H](CCN4CCN(C)CC4)CSc4ccccc4F)c(S(=O)(=O)C(F)(F)F)c3)C2)CCN([C@@H](C)c2ccccc2-c2ccc(Cl)cc2)CC1 [Example 74] | 41
2 | [2H]C1(N2CCc3c(ncnc3NS(=O)(=O)c3ccc(N[C@H](CCN4CC5CCC(C4)O5)CSc4ccccc4)c(S(=O)(=O)C(F)(F)F)c3)C2)CCN(Cc2cc(F)ccc2-c2ccc(Cl)cc2)CC1 [Example 80, 4-((2R)-4-(8-oxa-3-azabicyclo[3.2.1]octan-3-yl)-1-(phenylthio)butan-2-ylamino)-N-(7-(1-((4′-chloro-4-fluorobiphenyl-2-yl)methyl)-4-deuteropiperidin-4-yl)-5,6,7,8-tetrahydropyrido[3,4-d]pyrimidin-4-yl)-3-(trifluoromethylsulfonyl)benzenesulfonamide] | 225
3 | [2H]C1(N2CCc3c(ncnc3NS(=O)(=O)c3ccc(N[C@H](CCN4CCCC4)CSc4ccccc4)c(S(=O)(=O)C(F)(F)F)c3)C2)CCN(Cc2cc(F)ccc2-c2ccc(Cl)cc2)CC1 [Example 82, (R)-N-(7-(1-((4′-chloro-4 fluorobiphenyl-2-yl)methyl)-4-dueteropiperidin-4-yl)-5,6,7,8-tetrahydropyrido[3,4-d]pyrimidin-4-yl)-4-(1-(phenylthio)-4-(pyrrolidin-1-yl)butan-2-ylamino)-3-(trifluoromethylsulfonyl) benzene sulfonamide] | 109
4 | [2H]C1(N2CCc3c(ncnc3NS(=O)(=O)c3ccc(N[C@H](CCN4CCN(C)CC4)CSc4ccccc4F)c(S(=O)(=O)C(F)(F)F)c3)C2)CCN(CC2=C(c3ccc(Cl)cc3)CC(C)(C)CC2)CC1 [Example 83] | 28
5 | [2H]C1(N2CCc3c(ncnc3NS(=O)(=O)c3ccc(N[C@H](CCN4CCN(C)CC4)CSc4ccccc4F)c(S(=O)(=O)C(F)(F)F)c3)C2)CCN(Cc2cc(F)ccc2-c2ccc(Cl)cc2)CC1 [Example 87, (R)-N-(7-(1-((4′-chloro-4-fluorobiphenyl-2-yl)methyl)-4-deuteropiperidin-4-yl)-5,6,7,8-tetrahydropyrido[3,4-d]pyrimidin-4-yl)-4-(1-(2-fluorophenylthio)-4-(4-methylpiperazin-1-yl)butan-2-ylamino)-3-(trifluoromethylsulfonyl)benzenesulfonamide] | 32
6 | [2H]C1(N2CCc3c(ncnc3NS(=O)(=O)c3ccc(N[C@H](CCN4CCOCC4)CSc4ccccc4)c(S(=O)(=O)C(F)(F)F)c3)C2)CCN([C@@H](C)c2ccccc2-c2ccc(Cl)cc2)CC1 [Example 88] | 2310
7 | [2H]C1(N2CCc3c(ncnc3NS(=O)(=O)c3ccc(N[C@H](CCN4CCOCC4)CSc4ccccc4)c(S(=O)(=O)C(F)(F)F)c3)C2)CCN(C(C)C2=C(c3ccc(Cl)cc3)CC(C)(C)CC2)CC1 (stereo partly drawn) [Example 90, N-(7-(1-(1-(2-(4-chlorophenyl)-4,4-dimethylcyclohex-1-enyl)ethyl) 4-deuteropiperidin-4-yl)-5,6,7,8-tetrahydropyrido[3,4-d]pyrimidin-4-yl)-4-((R)-4-D-morpholino-1-(phenylthio)butan-2-ylamino)-3-(trifluoromethylsulfonyl)benzenesulfonamide] | 149
8 | [2H]C1(N2CCc3c(ncnc3NS(=O)(=O)c3ccc(N[C@H](CCN4CCOCC4)CSc4ccccc4)c(S(=O)(=O)C(F)(F)F)c3)C2)CCN(CC2=C(c3ccc(Cl)cc3)CC(C)(C)CC2)CC1 [Example 91, (R)-N-(7-(1-((2-(4-chlorophenyl)-4,4-dimethylcyclohex-1-enyl)methyl)-4-deuteropiperidin-4-yl)-5,6,7,8-tetrahydropyrido[3,4-d]pyrimidin-4-yl)-4-(4-morpholino-1-(phenylthio)butan-2-ylamino)-3-(trifluoromethylsulfonyl)benzenesulfonamide] | 41
9 | CN(C)CC[C@H](CSc1ccccc1)Nc1ccc(S(=O)(=O)Nc2nnc3n2CCN(C2CCN(Cc4ccccc4-c4ccc(Cl)cc4)CC2)CC3)cc1S(=O)(=O)C(F)(F)F [Example 93, N-{6-[1-(4′-Chloro-biphenyl-2-ylmethyl)-piperidin-4-yl]-5,6,7,8-tetrahydro-4H-1,2,3a,6-tetraaza-azulen-3-yl}-4-((R)-3-dimethylamino-1-phenyl-sulfanylmethyl-propylamino)-3-trifluoromethanesulfonyl-benzenesulfonamide] | 24

Other lines, results leading:

Row | IC50 [nM] | Compound
10 | 26 | [2H]C1(N2CCc3c(ncnc3NS(=O)(=O)c3ccc(N[C@H](CCN(C)C)CSc4ccccc4)c(S(=O)(=O)C(F)(F)F)c3)C2)CCN(Cc2cc(F)ccc2-c2ccc(Cl)cc2)CC1 [Example 73, (R)-N-(7-(1-((4′-chloro-4-fluorobiphenyl-2-yl)methyl)-4-deuteropiperidin-4-yl)-5,6,7,8-tetrahydropyrido[3,4-d]pyrimidin-4-yl)-4-(4-(dimethylamino)-1-(phenylthio)butan-2-ylamino)-3-(trifluoromethylsulfonyl)benzene sulfonamide]
11 | 66 | [2H]C1(N2CCc3c(nc(N(C)C)nc3NS(=O)(=O)c3ccc(N[C@H](CCN4CCN(C)CC4)CSc4ccccc4F)c(S(=O)(=O)C(F)(F)F)c3)C2)CCN(CC2=C(c3ccc(Cl)cc3)CC(C)(C)CC2)CC1 [Example 75, (R)-N-(7-(1-((2-(4-chlorophenyl)-4,4-dimethylcyclohex-1-enyl)methyl)-4-deuteropiperidin-4-yl)-2-(dimethylamino)-5,6,7,8-tetrahydropyrido[3,4-d]pyrimidin-4-yl)-4-(1-(2-fluorophenylthio)-4-(4-methylpiperazin-1-yl)butan-2-ylamino)-3-(trifluoromethylsulfonyl)benzenesulfonamide]
12 | 41 | [2H]C1(N2CCc3c(ncnc3NS(=O)(=O)c3ccc(N[C@H](CCN(C)C(C)C)CSc4ccccc4)c(S(=O)(=O)C(F)(F)F)c3)C2)CCN(CC2=C(c3ccc(Cl)cc3)CC(C)(C)CC2)CC1 [Example 78, N-(7-(1-[2-(4-Chloro-phenyl)-4,4-dimethyl-cyclohex-1-enylmethyl]-4-deutero-piperidin-4-yl)-5,6,7,8-tetrahydro-pyrido[3,4-d]pyrimidin-4-yl)-4-[(R)-3-(isopropyl-methyl-amino)-1-phenylsulfanylmethyl-propylamino]-3-trifluoromethanesulfonyl-benzenesulfonamide]
13 | 84 | [2H]C1(N2CCc3c(ncnc3NS(=O)(=O)c3ccc(N[C@H](CCN)CSc4ccccc4)c(S(=O)(=O)C(F)(F)F)c3)C2)CCN(Cc2cc(F)ccc2-c2ccc(Cl)cc2)CC1 [Example 79, 4-((R)-3-Amino-1-phenylsulfanylmethyl-propylamino)-N-{7-[4-deutero-1-(4′-chloro-4-fluoro-biphenyl-2-ylmethyl)-piperidin-4-yl]-5,6,7,8-tetrahydro-pyrido[3,4-d]pyrimidin-4-yl}-3-trifluoromethanesulfonyl-benzenesulfonamide]
14 | 312 | [2H]C1(N2CCc3c(ncnc3NS(=O)(=O)c3ccc(N[C@H](CCN4CC5CCC(C4)O5)CSc4ccccc4)c(S(=O)(=O)C(F)(F)F)c3)C2)CCN(CC2=C(c3ccc(Cl)cc3)CC(C)(C)CC2)CC1 [Example 81, 4-((2R)-4-(8-oxa-3-azabicyclo[3.2.1]octan-3-yl)-1-(phenylthio)butan-2-ylamino)-N-(7-(1-((2-(4-chlorophenyl)-4,4-dimethylcyclohex-1-enyl)methyl)-4-deuteropiperidin-4-yl)-5,6,7,8-tetrahydropyrido[3,4-d]pyrimidin-4-yl)-3-(trifluoromethylsulfonyl)-benzenesulfonamide]
15 | 73 | [2H]C1(N2CCc3c(ncnc3NS(=O)(=O)c3ccc(N[C@H](CCN(C)C(C)C)CSc4ccccc4)c(S(=O)(=O)C(F)(F)F)c3)C2)CCN(Cc2cc(F)ccc2-c2ccc(Cl)cc2)CC1 [Example 84]
16 | 30 | [2H]C1(N2CCc3c(ncnc3NS(=O)(=O)c3ccc(N[C@H](CCN4CCCC4)CSc4ccccc4)c(S(=O)(=O)C(F)(F)F)c3)C2)CCN(CC2=C(c3ccc(Cl)cc3)CC(C)(C)CC2)CC1 [Example 85, (R)-N-(7-(1-((2-(4-chlorophenyl)-4,4-dimethylcyclohex-1-enyl)methyl)-4-deuteropiperidin-4-yl)-5,6,7,8-tetrahydropyrido[3,4-d]pyrimidin-4-yl)-4-(1-(phenylthio)-4-(pyrrolidin-1-yl)butan-2-ylamino)-3-(trifluoromethylsulfonyl)benzenesulfonamide]
17 | 46 | [2H]C1(N2CCc3c(ncnc3NS(=O)(=O)c3ccc(N[C@H](CCN4CCOCC4)CSc4ccccc4)c(S(=O)(=O)C(F)(F)F)c3)C2)CCN([C@H](C)c2ccccc2-c2ccc(Cl)cc2)CC1 [Example 86, N-(7-{1-[(R)-1-(4′-Chloro-biphenyl-2-yl)-ethyl]-4-deuteropiperidin-4-yl}-5,6,7,8-tetrahydro-pyrido[3,4-d]pyrimidin-4-yl)-4-((R)-3-morpholin-4-yl-1-phenylsulfanylmethyl-propylamino)-3-trifluoromethanesulfonyl-benzenesulfonamide]
18 | 35 | [2H]C1(N2CCc3c(ncnc3NS(=O)(=O)c3ccc(N[C@H](CCN4CCN(CC)CC4)CSc4ccccc4)c(S(=O)(=O)C(F)(F)F)c3)C2)CCN(Cc2cc(F)ccc2-c2ccc(Cl)cc2)CC1 [Example 89, (R)-N-(7-(1-((4′-chloro-4-fluorobiphenyl-2-yl)methyl)-4-deuteropiperidin-4-yl)-5,6,7,8-tetrahydropyrido[3,4-d]pyrimidin-4-yl)-4-(4-(4-ethylpiperazin-1-yl)-1-(phenylthio)butan-2-ylamino)-3-(trifluoromethylsulfonyl)benzenesulfonamide]
19 | 194 | O=S(=O)(Nc1nnc2n1CCN(C1CCN(Cc3ccccc3-c3ccc(Cl)cc3)CC1)CC2)c1ccc(N[C@H](CCN2CCOCC2)CSc2ccccc2)c(S(=O)(=O)C(F)(F)F)c1 [Example 92, N-{6-[1-(4′-Chloro-biphenyl-2-ylmethyl)-piperidin-4-yl]-5,6,7,8-tetrahydro-4H-1,2,3a,6-tetraaza-azulen-3-yl}-4-((R)-3-morpholin-4-yl-1-phenylsulfanylmethyl-propylamino)-3-trifluoromethanesulfonyl-benzenesulfonamide]

Reference: patent US8809352B2, “Sulfonamides as inhibitors of Bcl-2 family proteins for the treatments of cancer” (Novartis AG, priority 2009, dated 2014)
